# Results as given in paper PMC4032265 (PLoS ONE, 2014).
# Like-named read-outs stand apart in the source and are kept apart here.
# Key:
# σ2 receptor = biological target: T1, σ2 receptor (Rattus norvegicus, UniProt Q5U3Y7); test: PDSP radioligand binding, σ2; details: for Ki: full curves, n = 2; for inhibition at 10 µM: read-out: % inhibition at 10 µM
# T1 sequence (Q5U3Y7 1-176): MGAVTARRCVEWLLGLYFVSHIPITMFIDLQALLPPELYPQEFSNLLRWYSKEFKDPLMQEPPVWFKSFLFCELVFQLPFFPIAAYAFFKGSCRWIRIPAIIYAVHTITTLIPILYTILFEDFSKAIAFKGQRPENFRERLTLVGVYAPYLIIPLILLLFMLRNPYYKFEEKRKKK
# [1] = biological target: H2 histaminergic receptor (Homo sapiens, UniProt P25021); test: PDSP radioligand binding, H2; details: read-out: % inhibition at 10 µM
# hA1AR [2] = biological target: T2, hA1AR (Homo sapiens, UniProt P30542); details: ref 1-4 of Table S1 (Tosh et al. 2009, 2012); cited from earlier work
# T2 sequence (P30542 1-326): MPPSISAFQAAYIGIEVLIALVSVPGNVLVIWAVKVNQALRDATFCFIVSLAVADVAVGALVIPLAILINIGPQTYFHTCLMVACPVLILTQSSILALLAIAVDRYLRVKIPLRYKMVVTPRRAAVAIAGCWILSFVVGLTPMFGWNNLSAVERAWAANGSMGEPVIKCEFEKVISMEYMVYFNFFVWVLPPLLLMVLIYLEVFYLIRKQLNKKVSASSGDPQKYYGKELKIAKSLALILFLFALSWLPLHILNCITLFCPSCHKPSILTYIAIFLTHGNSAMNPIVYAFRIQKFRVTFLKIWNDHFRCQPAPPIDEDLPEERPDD
# hA2AAR [3] = biological target: T3, hA2AAR (Homo sapiens, UniProt P29274); parameters: method as in earlier work; details: ref 1-4 of Table S1 (Tosh et al. 2009, 2012); cited from earlier work
# 5HT2B receptor = 5HT2B receptor (Homo sapiens, UniProt P41595); test: 5HT2B functional assay, antagonist mode (inhibition of agonist activity); type: cell-based; details: for % inhibition as antagonist at 5HT2B: 10 µM; for IC50: antagonist mode
# 5HT2C receptor = 5HT2C receptor (Homo sapiens, UniProt P28335); test: 5HT2C functional assay, antagonist mode (inhibition of agonist activity); type: cell-based; details: 10 µM
# hA1AR [4] = biological target: T2, hA1AR; test: Radioligand binding at hA1AR; details: compounds 8 and 9, measured for this study
# hA2AAR [5] = biological target: T3, hA2AAR; test: Radioligand binding at hA2AAR; details: compounds 8 and 9, measured for this study
# hA3AR = hA3AR (Homo sapiens, UniProt P0DMS8); test: Radioligand binding at hA3AR
# α2C adrenergic receptor = biological target: T4, α2C adrenergic receptor (Homo sapiens, UniProt P18825); test: α2C adrenergic receptor functional assay (antagonist); type: cell-based
# T4 sequence (P18825 1-462): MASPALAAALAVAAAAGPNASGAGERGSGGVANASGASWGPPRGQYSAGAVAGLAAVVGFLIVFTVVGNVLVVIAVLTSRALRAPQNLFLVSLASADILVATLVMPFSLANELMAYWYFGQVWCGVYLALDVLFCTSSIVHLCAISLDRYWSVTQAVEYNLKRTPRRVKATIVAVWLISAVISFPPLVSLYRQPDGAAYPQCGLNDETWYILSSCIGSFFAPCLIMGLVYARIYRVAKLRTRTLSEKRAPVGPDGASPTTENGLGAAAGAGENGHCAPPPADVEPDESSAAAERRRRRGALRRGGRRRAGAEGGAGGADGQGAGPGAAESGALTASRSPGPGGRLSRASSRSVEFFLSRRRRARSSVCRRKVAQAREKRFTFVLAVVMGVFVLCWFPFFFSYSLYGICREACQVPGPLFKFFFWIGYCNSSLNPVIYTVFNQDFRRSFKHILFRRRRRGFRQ
# KXα3β4 receptor 2 = biological target: T5, KXα3β4 receptor 2 (Rattus norvegicus, UniProt P04757+P12392); test: 86Rb+ efflux, nicotinic acetylcholine receptor antagonist activity, KXα3β4 receptor 2 cells; type: cell-based; details: cells expressing KXα3β4 receptor 2
# T5 construct: expressed in transfected cells; host or cells: KXα3β4 receptor 2 (KXα3β4R2) cells
# YXα3β4H1 receptor = biological target: T6, YXα3β4H1 receptor (Homo sapiens, UniProt P30926+P32297); test: 86Rb+ efflux, nicotinic acetylcholine receptor antagonist activity, YXα3β4H1 cells; type: cell-based; details: cells expressing YXα3β4H1 receptor
# T6 construct: expressed in transfected cells
# KXα4β2 receptor 2 = biological target: T7, KXα4β2 receptor 2 (Rattus norvegicus, UniProt P09483+P12390); test: [3H]epibatidine binding in cells expressing KXα4β2 receptor 2
# T7 construct: expressed in transfected cells
# [6] = read-out: IC50 at 5HT2B receptors (Figure S2)
SMILES,Ki (σ2 receptor),hA1AR % inhibition (hA1AR [2]),hA2AAR % inhibition (hA2AAR [3]),inhibition at 10 µM (σ2 receptor; single concentration 10 µM),also measured
CNC(=O)[C@@]12C[C@@H]1[C@@H](n1cnc3c(NCc4cccc(Cl)c4)nc(C#Cc4ccc(F)c(F)c4)nc31)[C@H](O)[C@@H]2O [Compound 1],908 ± 294 nM,< 10%,41%±10%,–,inhibition at 10 µM (σ2 receptor): 0%; inhibition at 10 µM [1]: 34%
CNC(=O)[C@@]12C[C@@H]1[C@@H](n1cnc3c(NCc4cccc(Cl)c4)nc(C#Cc4ccc(F)cc4)nc31)[C@H](O)[C@@H]2O [Compound 2],–,20%±6%,42%±2%,30%,–
CNC(=O)[C@@]12C[C@@H]1[C@@H](n1cnc3c(NCc4cccc(Cl)c4)nc(C#Cc4ccccc4Cl)nc31)[C@H](O)[C@@H]2O [Compound 3],–,19%±2%,52%±12%,42%,–
CNC(=O)[C@@]12C[C@@H]1[C@@H](n1cnc3c(NCc4cccc(Cl)c4)nc(Cl)nc31)[C@H](O)[C@@H]2O [Compound 4],–,–,–,0%,"% inhibition as antagonist at 5HT2B (5HT2B receptor): 60%; IC50 (5HT2B receptor; read-out: IC50, inhibition of agonist activity at 5HT2B): 887 nM; IC50 (5HT2B receptor; [6]): 3260 nM; % inhibition as antagonist at 5HT2C (5HT2C receptor): 94%"
CNC(=O)[C@@]12C[C@@H]1[C@@H](n1cnc3c(NC)nc(C#Cc4ccc(F)c(F)c4)nc31)[C@H](O)[C@@H]2O [Compound 5],–,< 10%,< 10%,33%,–
O[C@@H]1[C@H](O)[C@@H]2C[C@@H]2[C@H]1n1cnc2c(NCc3cccc(Cl)c3)nc(C#Cc3ccc(F)c(F)c3)nc21 [Compound 6],2940 ± 1500 nM,29%±1%,–,69%,inhibition at 10 µM ([1]; single concentration 10 µM): 0%
O[C@@H]1[C@H](O)[C@@H]2C[C@@H]2[C@H]1n1cnc2c(NCc3cccc(Cl)c3)ncnc21 [Compound 7],2680 ± 470 nM,–,–,66%,–
Fc1ccc(C#Cc2nc(NCc3cccc(Cl)c3)c3nc[nH]c3n2)cc1F [Compound 8],–,–,–,14%,hA1AR % inhibition (hA1AR [4]): < 10%; hA2AAR % inhibition (hA2AAR [5]): < 10%; Ki (hA3AR): 120 nM
Clc1cccc(CNc2nc(Cl)nc3[nH]cnc23)c1 [Compound 9],–,–,–,0%,% inhibition as antagonist at 5HT2B (5HT2B receptor): 26%; IC50 (5HT2B receptor; [6]): 890 nM; % inhibition as antagonist at 5HT2C (5HT2C receptor): 65%; IC50 (α2C adrenergic receptor): 2900 nM; hA1AR % inhibition (hA1AR [4]): 45%±3%; hA2AAR % inhibition (hA2AAR [5]): 37%±1%; Ki (hA3AR): 165 nM
O[C@@H]1[C@H](O)[C@@H]2C[C@@H]2[C@H]1n1cnc2c(NC(C3CC3)C3CC3)nc(Cl)nc21 [Compound 10],–,–,–,0%,inhibition at 10 µM ([1]; single concentration 10 µM): 13%; IC50 (KXα3β4 receptor 2): 21200 nM; IC50 (YXα3β4H1 receptor): 30300 nM; inhibition of [3H]epibatidine binding (KXα4β2 receptor 2): no inhibition
